Data as given in the supplement of paper PMC11061612.

Assays:
Assay in all cases: Bliss excess, mean over the matrix (fraction); higher = more synergy
[1] = test system: 22RV1 (Prostate Carcinoma)
How it was run: (§1)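 Cell lines grown in DMEM/F12 or RPMI with 10% FBS were plated in 1536-well plates and held 24 hours at 37°C, 5% CO2 before 72 hours of exposure to two-drug dose matrices, with DMSO typically at 0.2%. CellTiter-Glo 2.0 luminescence gave viability, which was converted to inhibition. Vehicle wells were set to 0 and blank wells to 1. Combination Emax is the second-highest inhibition in the matrix, and Bliss excess is the observed combination effect minus the expected EA + EB − EA·EB, where EA and EB are the single-agent effects.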

769-P (Kidney Carcinoma) = test system: 769-P (Kidney Carcinoma)
How it was run: as §1

[2] = test system: CESS (Acute Myeloid Leukemia)
How it was run: as §1

[3] = test system: DMS-53 (Small Cell Lung Carcinoma)
How it was run: as §1

EB2 (Burkitt's Lymphoma) = test system: EB2 (Burkitt's Lymphoma)
How it was run: as §1

[4] = test system: EPLC-272H (Other Solid Carcinomas)
How it was run: as §1

EW-16 (Ewing's Sarcoma) = test system: EW-16 (Ewing's Sarcoma)
How it was run: as §1

[5] = test system: GCT (Other Solid Carcinomas)
How it was run: as §1

[6] = test system: HT55 (Colorectal Carcinoma)
How it was run: as §1

[7] = test system: JIMT-1 (Breast Carcinoma)
How it was run: as §1

[8] = test system: MDA-MB-436 (Breast Carcinoma)
How it was run: as §1

NB13 (Neuroblastoma) = test system: NB13 (Neuroblastoma)
How it was run: as §1

[9] = test system: NCI-H1703 (Squamous Cell Lung Carcinoma)
How it was run: as §1

[10] = test system: NCI-H2228 (Lung Adenocarcinoma)
How it was run: as §1

[11] = test system: NCI-H441 (Lung Adenocarcinoma)
How it was run: as §1

[12] = test system: NCI-H716 (Colorectal Carcinoma)
How it was run: as §1

[13] = test system: OACp4C (Esophageal Adenocarcinoma)
How it was run: as §1

PEO1 (Ovarian Carcinoma) = test system: PEO1 (Ovarian Carcinoma)
How it was run: as §1

[14] = test system: SW620 (Colorectal Carcinoma)
How it was run: as §1

[15] = test system: huH-1 (Hepatocellular Carcinoma)
How it was run: as §1

Row | Compound | Bliss excess [1] | Bliss excess (769-P (Kidney Carcinoma)) | Bliss excess [2] | Bliss excess [3] | Bliss excess (EB2 (Burkitt's Lymphoma)) | Bliss excess [4] | Bliss excess (EW-16 (Ewing's Sarcoma)) | Bliss excess [5] | Bliss excess [6] | Bliss excess [7] | Bliss excess [8] | Bliss excess (NB13 (Neuroblastoma)) | Bliss excess [9] | Bliss excess [10] | Bliss excess [11] | Bliss excess [12] | Bliss excess [13] | Bliss excess (PEO1 (Ovarian Carcinoma)) | Bliss excess [14] | Bliss excess [15]
1 | COc1cccc(OCCCN)c1-c1cc(Nc2cnc(C#N)cn2)n[nH]1 [Prexasertib] + Cc1cc2ncnn2cc1Nc1ncc2c(n1)n(C1CCOCC1)c(=O)n2C [AZD7648] (first compound max 1 µM, 7x7, partner max 10 µM) | -0.0316 | -0.038 | 0.0409 | -0.0344 | -0.0306 | -0.0481 | 0.0156 | 0.0365 | -0.0102 | -0.0205 | -0.0552 | -0.023 | -0.0192 | -0.0487 | 0.0071 | 0.0577 | 0.0093 | -0.0117 | -0.0177 | -0.0226
2 | NC1(C(=O)N[C@@H](CCO)c2ccc(Cl)cc2)CCN(c2ncnc3[nH]ccc23)CC1 [Capivasertib] + CC(C)n1c(=O)n(C)c2cnc3cc(F)c(-c4ccc(OCCCN5CCCCC5)nc4)cc3c21 [AZD1390] (first compound max 10 µM, 7x7, partner max 0.3 µM) | -0.0886 | -0.0261 | -0.0835 | 0.0083 | 0.0109 | -0.13 | -0.079 | -0.0509 | -0.0432 | -0.0118 | -0.0625 | -0.0584 | -0.0132 | -0.0728 | -0.0711 | -0.0701 | -0.0479 | -0.0601 | -0.0529 | -0.0802
3 | COc1nnc2ccc(N3CCC(c4ccc(OCCN5CCN(C)C(=O)[C@H]5C)cc4)CC3)nn12 [AZD5153] + CC1(C)CCC(CN2CCN(c3ccc(C(=O)NS(=O)(=O)c4ccc(NCC5CCOCC5)c([N+](=O)[O-])c4)c(Oc4cnc5[nH]ccc5c4)c3)CC2)=C(c2ccc(Cl)cc2)C1 [Venetoclax] (first compound max 1 µM, 7x7, partner max 1 µM) | -0.0308 | -0.0457 | -0.0713 | -0.0406 | -0.0677 | -0.0378 | -0.0593 | -0.107 | -0.0387 | -0.0629 | -0.0572 | -0.137 | -0.0404 | -0.0523 | -0.0137 | -0.0035 | -0.0242 | -0.0771 | -0.0671 | -0.0962
4 | CC1(C)CCC(CN2CCN(c3ccc(C(=O)NS(=O)(=O)c4ccc(NCC5CCOCC5)c([N+](=O)[O-])c4)c(Oc4cnc5[nH]ccc5c4)c3)CC2)=C(c2ccc(Cl)cc2)C1 [Venetoclax] + COc1cc(Nc2ncc3c(n2)-c2ccc(Cl)cc2C(c2c(F)cccc2OC)=NC3)ccc1C(=O)O [Alisertib] (first compound max 1 µM, 7x7, partner max 10 µM) | 0.003 | 0.0339 | 0.0268 | 0.192 | 0.13 | 0.0442 | 0.0541 | -0.0365 | 0.0009 | -0.0247 | -0.0299 | 0.0028 | 0.0636 | -0.0413 | -0.0511 | -0.0203 | 0.0112 | 0.0007 | -0.0335 | -0.02
5 | Cc1c2c(nn1C)CSCc1cc(n(C)n1)CSc1cc(c3ccccc3c1)OCCCc1c(C(=O)O)n(C)c3c-2c(Cl)ccc13 [AZD5991] + CCN(CCO)CCCOc1ccc2c(Nc3cc(CC(=O)Nc4cccc(F)c4)[nH]n3)ncnc2c1 [AZD2811] (first compound max 1 µM, 7x7, partner max 1 µM) | -0.0004 | -0.0395 | 0.192 | 0.0525 | 0.0391 | 0.0705 | 0.117 | 0.0106 | 0.0472 | 0.0203 | -0.0406 | 0.131 | 0.0139 | 0.0161 | -0.0142 | -0.0013 | 0.0088 | 0.0502 | 0.0591 | 0.024
6 | CC1(C)CCC(CN2CCN(c3ccc(C(=O)NS(=O)(=O)c4ccc(NCC5CCOCC5)c([N+](=O)[O-])c4)c(Oc4cnc5[nH]ccc5c4)c3)CC2)=C(c2ccc(Cl)cc2)C1 [Venetoclax] + C=CCn1c(=O)c2cnc(Nc3ccc(N4CCN(C)CC4)cc3)nc2n1-c1cccc(C(C)(C)O)n1 [AZD1775] (first compound max 1 µM, partner max 1 µM) | 0.0156 | -0.0081 | -0.0236 | 0.0804 | 0.063 | -0.025 | -0.0504 | -0.0339 | -0.0016 | -0.0568 | -0.0202 | 0.078 | 0.009 | -0.0602 | 0.002 | 0.0214 | -0.03 | -0.0325 | -0.0536 | -0.066
